Test results as given in ChEMBL document CHEMBL3632488, “Discovery of potent and selective cytotoxic activity of new quinazoline-ureas against TMZ-resistant glioblastoma multiforme (GBM)” (Eur J Med Chem, 2015).
Calls of active or inactive are those of the source. The calls are words filed in the database; no cut-off is given here.

Tests used:
[1] = molecular target: Translocator protein (Rattus norvegicus) (UniProt P16257); assay: Displacement of [3H]PK11195 from TSPO receptor in Sprague-Dawley rat cerebral cortex membrane at 100 nM by radiometric competitive assay; format: tissue-based
GBM [2] = assay: Tumoricidal effect in patient derived GBM 448T cells assessed as reduction in neurosphere formation at 0.5 uM after 1 to 2 weeks by 3D tumor clonogenic assay; format: functional, cell-based; settings: Homo sapiens
[3] = Antiproliferative activity against human GBM2 cells assessed as reduction in cell viability at 10 uM incubated for 72 hrs by WST-1 method; format: functional; settings: GBM2, 72 h
[4] = Selectivity index, ratio of IC50 for normal human astrocytes to IC50 for human GBM1 cells
GBM [5] = assay: Tumoricidal effect in patient derived GBM 464T cells assessed as reduction in neurosphere formation at 0.1 uM after 1 to 2 weeks by 3D tumor clonogenic assay; format: functional, cell-based; settings: Homo sapiens
GBM2 [6] = assay: Induction of apoptosis in human GBM2 cells assessed as loss of mitochondrial membrane potential in presence of PK11195 at 10 uM after 2 hrs by JC-1 staining based fluorescence microscopy; format: functional, cell-based
GBM2 [7] = assay: Induction of apoptosis in human GBM2 cells assessed as loss of mitochondrial membrane potential at 10 uM after 2 hrs by JC-1 staining based fluorescence microscopy; format: functional, cell-based
[8] = molecular target: Voltage-gated inwardly rectifying potassium channel KCNH2 (Homo sapiens, UniProt Q12809); assay: Displacement of [3H]astemizole from human ERG potassium channel expressed in HEK293 cell membrane after 1 hr; format: cell membranes
GBM [9] = assay: Tumoricidal effect in patient derived GBM 025T cells assessed as reduction in neurosphere formation at 0.5 uM after 1 to 2 weeks by 3D tumor clonogenic assay; format: functional, cell-based; settings: Homo sapiens
GBM1 = assay: Induction of apoptosis in human GBM1 cells assessed as loss of mitochondrial membrane potential at 10 uM after 2 hrs by JC-1 staining based fluorescence microscopy; format: functional, cell-based
GBM [10] = assay: Tumoricidal effect in patient derived GBM 096T cells assessed as reduction in neurosphere formation at 0.5 uM after 1 to 2 weeks by 3D tumor clonogenic assay; format: functional, cell-based; settings: Homo sapiens
Cytochrome P450 2C9 = Cytochrome P450 2C9 (Homo sapiens, UniProt P11712); assay: Inhibition of CYP2C9 (unknown origin) using luciferin tagged substrate preincubated for 10 mins before substrate addition; format: ADME
[11] = molecular target: Translocator protein (Rattus norvegicus) (UniProt P16257); assay: Displacement of [3H]PK11195 from TSPO receptor in Sprague-Dawley rat cerebral cortex membrane at 1 uM by radiometric competitive assay; format: tissue-based
GBM2 [12] = assay: Induction of apoptosis in human GBM2 cells assessed as loss of mitochondrial membrane potential in presence of cyclosporine A at 10 uM after 2 hrs by JC-1 staining based fluorescence microscopy; format: functional, cell-based
Cytochrome P450 2C19 = Cytochrome P450 2C19 (Homo sapiens, UniProt P33261); assay: Inhibition of CYP2C19 (unknown origin) using luciferin tagged substrate preincubated for 10 mins before substrate addition; format: ADME
GBM [13] = assay: Tumoricidal effect in patient derived GBM 047T cells assessed as reduction in neurosphere formation at 0.5 uM after 1 to 2 weeks by 3D tumor clonogenic assay; format: functional, cell-based; settings: Homo sapiens
[14] = Antiproliferative activity against human GBM3 cells assessed as reduction in cell viability incubated for 72 hrs by WST-1 method; format: functional, cell-based; settings: GBM3, 72 h
[15] = molecular target: Translocator protein (Rattus norvegicus) (UniProt P16257); assay: Displacement of [3H]PK11195 from TSPO receptor in Sprague-Dawley rat cerebral cortex membrane at 10 uM by radiometric competitive assay; format: tissue-based
[16] = Antiproliferative activity against human GBM1 cells assessed as reduction in cell viability at 10 uM incubated for 72 hrs by WST-1 method; format: functional; settings: GBM1, 72 h
[17] = Selectivity index, ratio of IC50 for normal human astrocytes to IC50 for human GBM2 cells
GBM2 [18] = assay: Induction of apoptosis in human GBM2 cells assessed as loss of mitochondrial membrane potential in presence of BAPTA at 10 uM after 2 hrs by JC-1 staining based fluorescence microscopy; format: functional, cell-based
GBM [19] = assay: Tumoricidal effect in patient derived GBM 096T cells assessed as reduction in neurosphere formation at 0.1 uM after 1 to 2 weeks by 3D tumor clonogenic assay; format: functional, cell-based; settings: Homo sapiens
[20] = Antiproliferative activity against human GBM3 cells assessed as reduction in cell viability at 10 uM incubated for 72 hrs by WST-1 method; format: functional; settings: GBM3, 72 h
GBM [21] = assay: Tumoricidal effect in patient derived GBM 025T cells assessed as reduction in neurosphere formation at 0.1 uM after 1 to 2 weeks by 3D tumor clonogenic assay; format: functional, cell-based; settings: Homo sapiens
Cytochrome P450 3A4 = Cytochrome P450 3A4 (Homo sapiens, UniProt P08684); assay: Inhibition of CYP3A4 (unknown origin) using luciferin tagged substrate preincubated for 10 mins before substrate addition; format: ADME
Translocator protein = Translocator protein (Rattus norvegicus, UniProt P16257); assay: Displacement of [3H]PK11195 from TSPO receptor in Sprague-Dawley rat cerebral cortex membrane by radiometric competitive assay; format: tissue-based
[22] = Antiproliferative activity against human GBM2 cells assessed as reduction in cell viability incubated for 72 hrs by WST-1 method; format: functional, cell-based; settings: GBM2, 72 h
[23] = Selectivity index, ratio of IC50 for normal human astrocytes to IC50 for human GBM3 cells
Cytochrome P450 2D6 = Cytochrome P450 2D6 (Homo sapiens, UniProt P10635); assay: Inhibition of CYP2D6 (unknown origin) using luciferin tagged substrate preincubated for 10 mins before substrate addition; format: ADME
GBM [24] = assay: Tumoricidal effect in patient derived GBM 464T cells assessed as reduction in neurosphere formation at 0.5 uM after 1 to 2 weeks by 3D tumor clonogenic assay; format: functional, cell-based; settings: Homo sapiens
[25] = Antiproliferative activity against human GBM1 cells assessed as reduction in cell viability incubated for 72 hrs by WST-1 method; format: functional, cell-based; settings: GBM1, 72 h
GBM [26] = assay: Tumoricidal effect in patient derived GBM 448T cells assessed as reduction in neurosphere formation at 0.1 uM after 1 to 2 weeks by 3D tumor clonogenic assay; format: functional, cell-based; settings: Homo sapiens
GBM [27] = assay: Tumoricidal effect in patient derived GBM 047T cells assessed as reduction in neurosphere formation at 0.1 uM after 1 to 2 weeks by 3D tumor clonogenic assay; format: functional, cell-based; settings: Homo sapiens
[28] = Cytotoxicity against normal human astrocytes assessed as cell viability incubated for 72 hrs by WST-1 method; format: cell-based; settings: Astrocyte
Cytochrome P450 1A2 = molecular target: T1, Cytochrome P450 1A2 (Homo sapiens, UniProt P05177); assay: Inhibition of CYP1A2 (unknown origin) using luciferin tagged substrate preincubated for 10 mins before substrate addition; format: ADME
T1 sequence (P05177 whole entry): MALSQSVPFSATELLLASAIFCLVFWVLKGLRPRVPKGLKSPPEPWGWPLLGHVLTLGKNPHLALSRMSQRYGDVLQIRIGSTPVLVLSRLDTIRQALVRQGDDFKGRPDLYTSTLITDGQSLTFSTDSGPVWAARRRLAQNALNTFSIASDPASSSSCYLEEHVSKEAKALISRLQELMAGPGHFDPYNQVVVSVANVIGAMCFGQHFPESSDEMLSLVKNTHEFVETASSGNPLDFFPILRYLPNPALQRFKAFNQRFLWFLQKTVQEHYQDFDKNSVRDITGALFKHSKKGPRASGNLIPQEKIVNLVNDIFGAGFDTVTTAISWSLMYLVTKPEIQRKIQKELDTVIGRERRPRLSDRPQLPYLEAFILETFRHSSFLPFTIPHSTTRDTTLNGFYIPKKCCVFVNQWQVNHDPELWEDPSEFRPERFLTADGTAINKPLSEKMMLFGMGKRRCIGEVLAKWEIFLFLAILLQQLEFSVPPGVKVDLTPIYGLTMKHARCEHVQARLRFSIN

[29] = molecular target: Translocator protein (Rattus norvegicus) (UniProt P16257); assay: Displacement of [3H]PK11195 from TSPO receptor in Sprague-Dawley rat cerebral cortex membrane at 10 nM by radiometric competitive assay; format: tissue-based

In the case of `O=C(Nc1cc2ncncc2cc1OCc1cccc(Cl)c1)Nc1cccc2ccccc12`, the inhibition [1] is reported as 15%, the Activity (GBM [2]) is reported as “Active” and the inhibition at 10 µM [3] is reported as 99.9%. For the same compound, the “Ratio IC50” value [4] was over 10.1, the Activity (GBM [5]) was “Active” and the Activity (GBM2 [6]) was “Active”. The Activity (GBM2 [7]) was “Active”, the IC50 [8] was over 10 µM and the Activity (GBM [9]) was “Active”. For the same compound, the Activity (GBM1) was “Active”, the Activity (GBM [10]) was “Active” and the IC50 (Cytochrome P450 2C9) was over 10 µM. The inhibition [11] was 59%, the Activity (GBM2 [12]) was “Active” and the IC50 (Cytochrome P450 2C19) was over 10 µM. For the same compound, the Activity (GBM [13]) was “Active”, the IC50 [14] was 0.8 µM and the inhibition [15] was 85%. For the same compound, the inhibition at 10 µM [16] was 100%, the “Ratio IC50” value [17] was over 10.1 and the Activity (GBM2 [18]) was “Active”. For the same compound, the Activity (GBM [19]) was “Active”, the inhibition at 10 µM [20] was 98.7% and the Activity (GBM [21]) was “Active”. For the same compound, the IC50 (Cytochrome P450 3A4) was over 10 µM, the IC50 (Translocator protein) was 0.722 µM and the IC50 [22] was 1.1 µM. For the same compound, the “Ratio IC50” value [23] was over 10.1, the IC50 (Cytochrome P450 2D6) was 5.1 µM and the Activity (GBM [24]) was “Active”. For the same compound, the IC50 [25] was 1.1 µM, the Activity (GBM [26]) was “inactive” and the Activity (GBM [27]) was “inactive”. It also gave an IC50 [28] of over 10 µM, an IC50 (Cytochrome P450 1A2) of over 10 µM and an inhibition [29] of 2%.
